Experimental data as given in patent US4413126A, “Preparation of isoquinoline derivatives useful as immune regulants” (Eli Lilly and Company, priority 1982, dated 1983).
Counter-ions that a name gives are not always drawn. Like-named read-outs stand apart in the source and are kept apart here.

Legend:
[1] = test system: antibody titer; test: Individual Serum Assay Procedure (mouse hemagglutinin, oral); format: in vivo, mouse (Swiss); conditions: read-out: Endpoint Dose (p < 0.05): lowest drug dose significantly lowering antibody titer
[2] = test system: GVH reaction; test: Graft-Versus-Host (GVH) Reaction; format: in vivo, mouse (C57BL×C3H); conditions: for minimal effective dose: 312 h, read-out: Endpoint Dose (p < 0.05): lowest drug dose significantly lowering the spleen/body weight ratio
Experimental: In this test, parental (C57BL) mouse spleen cells are injected into mice of an F1 hybrid strain (C57BL×C3H). […] As a consequence, the recipient's spleen becomes enlarged. Immunosuppression prevents or reduces this enlargement. Thus, spleen weights provide a measure of the GVH reaction and its reduction under immunosuppression.
A modification of Simonsen's original procedure (Ann. N.Y. Acad. Sci., 73, 834 (1958) was employed. Large crops of spleen cells were obtained, without the generally employed manual teasing of spleens, by using Waring blendors with the cutting blades reversed. Two six-second blending periods buffeted the spleens (batches of 25 C57BL spleens in 25-ml. saline) sufficiently to free the cells from the connective tissue. The latter was removed by filtration through several thicknesses of cheesecloth. Cell suspensions prepared in this fashion were standardized, by means of Levy-Hausser chamber counts, to contain 6×10^8 nucleated cells per ml. Groups of ten 16-18 gram C57BL×C3H mice were injected intraperitoneally with 1 ml. of the donor cell suspension. The compounds were administered either orally (P.O.) or subcutaneously (S.C.) in a vehicle composed of saline containing 0.125% methylcellulose and 0.2% emulphor, commencing 3 days prior to cell injection and continuing daily for 13 days. Control animals received only cells and vehicle. The spleens were removed and weighed 10 days following cell injection, and the mg. spleen/gram body weight was calculated.
The compounds were administered at several dose levels and the mean spleen/body weight ratio at each dose level was compared to the control group which received only the vehicle. The p values (by Student's two-tail t Test) were determined as compared to the control group. […] The results obtained in the graft-versus-host reaction with the compounds of this invention and standard compounds are summarized in Table III.

[3] = test system: antibody production; test: Mouse Hemagglutinin assay, oral administration (pooled serum assay procedure); format: in vivo, mouse (Swiss); conditions: P.O., nine daily doses; for minimal effective dose: Mus musculus, po, read-out: MED (minimum effective dose: lowest drug dose producing 75 percent or greater antibody suppression)
Experimental: Groups of five 20-gram, male, random-bred, Swiss mice received intravenous injections of 5×10^7 sheep red blood cells. The cells for these injections were prepared from lamb's blood (collected in Alsever's solution) by washing three times with 0.85 percent saline. Nine daily doses of each compound to be tested, solubilized in polyethylene glycol 400, were administered orally in 0.1 ml. doses, commencing three days prior to red blood cell injection. Several dose levels of each compound were employed, at 2-fold increments. A control group of mice, receiving a red blood cell injection and nine daily doses of vehicle instead of drug, was included. Six days after the antigen injections, the mice were bled by cardiac puncture and the blood from each 5-mouse group pooled. […] Following incubation of the trays for 3 hours at 37° C., the hemagglutination patterns were graded.

[4] = test system: adjuvant-induced arthritis; test: Adjuvant-induced Arthritis Test in Rats: uninjected paw volume inflammation; format: in vivo, rat (Lewis-Wistar); conditions: days 11 through 25
[5] = test system: adjuvant-induced arthritis; test: Adjuvant-induced Arthritis Test in Rats: bone damage by X-ray; format: in vivo, rat (Lewis-Wistar); conditions: X-ray day 25
[6] = P.O., ten daily doses, mouse, individual serum
[7] = po, P.O., daily for 13 days, mouse

Structure (SMILES): O=c1c2cccc3cccc(c32)c2nc3cc(Cl)ccc3n12 [11-chloro, 11-chloro-7H-benzimidazo[2,1-a]benz[de]isoquinoline-7-one]
- minimal effective dose [1, 6]: 0.2 mg/kg
- minimal effective dose ([2]; Mus musculus, po): 12.5 mg/kg
- MED (minimum effective dose: lowest drug dose producing 75 percent or greater antibody suppression) [3]: 0.4 mg./kg. × 9

Structure (SMILES): O=c1c2cccc3cccc(c32)c2nc3cc(F)ccc3n12 [11-fluoro, 11-fluoro-7H-benzimidazo[2,1-a]benz[de]isoquinoline-7-one]
- minimal effective dose [3]: 12.5 mg/kg

Structure (SMILES): O=c1c2cccc3cccc(c32)c2nc3cc(Cl)ccc3n12 [11-chloro(p-toluenesulfonate salt)]
- MED (minimum effective dose: lowest drug dose producing 75 percent or greater antibody suppression) [3]: 6.25 mg./kg. × 9

Structure (SMILES): CC(C(=O)O)c1cccc(Oc2ccccc2)c1 (stereo not shown) [Fenoprofen, reference compound]
- % Inhibition of uninjected paw volume inflammation (AUC) ([4]; Test 1, 40 mg./kg. P.O. × 24): 44.0%
- % Inhibition of uninjected paw volume inflammation (AUC) ([4]; Test 2, 40 mg./kg. P.O. × 24): 60.7%

Structure (SMILES): C[n+]1c2ccc(C(F)(F)F)cc2n2c(=O)c3cccc4cccc(c43)c21
- minimal effective dose [3]: 100 mg/kg

Structure (SMILES): O=c1c2cccc3cccc(c32)c2nc3cc(C(F)(F)F)ccc3n12 [11-trifluoromethyl, 11-(trifluoromethyl)-7H-benzimidazo[2,1-a]benz[de]isoquinoline-7-one]
- minimal effective dose [1, 6]: 0.4 mg/kg
- inhibition of bone damage, injected paws ([5]; Test 1 (100 mg./kg. P.O. × 24)): 68%
- inhibition of bone damage, uninjected paws, compared to TB control group ([5]; Test 1 (100 mg./kg. P.O. × 24)): 94%
- inhibition of bone damage, injected paws ([5]; Test 2 (50 mg./kg. P.O. × 24)): 66%
- inhibition of bone damage, uninjected paws, compared to TB control group ([5]; Test 2 (50 mg./kg. P.O. × 24)): 88%
- % Inhibition of uninjected paw volume inflammation (AUC) ([4]; Test 1, 100 mg./kg. P.O. × 24): 85.8%
- % Inhibition of uninjected paw volume inflammation (AUC) ([4]; Test 2, 50 mg./kg. P.O. × 24): 55.9%
- minimal effective dose ([2]; Mus musculus, po): 12.5 mg/kg
- minimal effective dose ([2]; sc, S.C., daily for 13 days, mouse): < 0.1 mg/kg
- MED (minimum effective dose: lowest drug dose producing 75 percent or greater antibody suppression) [3]: 0.2 mg./kg. × 9

Structure (SMILES): O=P1(N(CCCl)CCCl)NCCCO1 (stereo not shown) [Cyclophosphamide, reference compound]
- minimal effective dose [2, 7]: 12.5 mg/kg

Structure (SMILES): C[n+]1c2ccc(Cl)cc2n2c(=O)c3cccc4cccc(c43)c21
- minimal effective dose [3]: > 100 mg/kg

Structure (SMILES): C[n+]1c2cc(Cl)ccc2n2c(=O)c3cccc4cccc(c43)c21
- minimal effective dose [3]: 100 mg/kg

Structure (SMILES): O=c1c2cccc3cccc(c32)c2nc3ccc(Br)cc3n12 [10-bromo, 10-bromo-7H-benzimidazo[2,1-a]benz[de]isoquinoline-7-one]
- minimal effective dose [3]: 12.5 mg/kg

Structure (SMILES): Cn1cnc([N+](=O)[O-])c1Sc1ncnc2nc[nH]c12 [Azathioprine, reference compound]
- minimal effective dose [1, 6]: 100 mg/kg
- Endpoint Dose (p < 0.05): lowest drug dose significantly lowering the spleen/body weight ratio ([2]; P.O., daily for 13 days, mouse): 12.5 mg./kg. × 13
- minimal effective dose [3]: 100 mg/kg

Structure (SMILES): C[n+]1c2cc(C(F)(F)F)ccc2n2c(=O)c3cccc4cccc(c43)c21 [13-methyl-7-oxo-11-(trifluoromethyl)-7H-benzimidazo[2,1-a]benz[de]isoquinolinium 4-methylbenzenesulfonate]
- minimal effective dose ([1]; Mus musculus): 12.5 mg/kg
- minimal effective dose ([2]; Mus musculus, po): 12.5 mg/kg
- minimal effective dose [3]: 1.6 mg/kg

Structure (SMILES): O=c1c2cccc3cccc(c32)c2nc3ccc(Cl)cc3n12 [10-chloro, 10-chloro-7H-benzimidazo[2,1-a]benz[de]isoquinoline-7-one]
- minimal effective dose [3]: 3.1 mg/kg

Structure (SMILES): O=c1c2cccc3cccc(c32)c2nc3cc(C(F)(F)F)ccc3n12 [11-trifluoromethyl(p-toluenesulfonate salt)]
- MED (minimum effective dose: lowest drug dose producing 75 percent or greater antibody suppression) [3]: 3.1 mg./kg. × 9

Structure (SMILES): CN(Cc1cnc2nc(N)nc(N)c2n1)c1ccc(C(=O)N[C@@H](CCC(=O)O)C(=O)O)cc1 [Methotrexate, reference compound]
- minimal effective dose ([2]; Mus musculus, po): 0.2 mg/kg

Structure (SMILES): O=c1c2cccc3cccc(c32)c2nc3ccc(C(F)(F)F)cc3n12 [10-trifluoromethyl, 10-(trifluoromethyl)-7H-benzimidazo[2,1-a]benz[de]isoquinoline-7-one]
- minimal effective dose [2, 7]: < 25 mg/kg
- minimal effective dose [3]: 25 mg/kg

Structure (SMILES): O=c1c2cccc3cccc(c32)c2nc3cc(Br)ccc3n12 [11-bromo, 11-bromo-7H-benzimidazo[2,1-a]benz[de]isoquinoline-7-one]
- minimal effective dose [1, 6]: 12.5 mg/kg
- minimal effective dose [2, 7]: < 25 mg/kg
- minimal effective dose [3]: 1.6 mg/kg

Structure (SMILES): C[C@]12CCC(=O)C=C1CC[C@@H]1[C@@H]2C(=O)C[C@@]2(C)[C@H]1CC[C@]2(O)C(=O)CO [Cortisone, reference compound]
- minimal effective dose [2, 7]: 3.1 mg/kg
